Experimental data as given in patent US6630499B1, “Control of arthropods in animals” (Aventis CropScience, S.A., priority 1998, dated 2003).

Columns and labels:
Type in all cases: in vivo
[1] = Emesis in treated cats; details: cats, 20 mg/kg
Description: (§1) By the term “emesis” is meant vomiting. Generally an emetic substance elicits emesis in less than 24 hours after administration, usually less than 8 hours, more usually less than 2 hours. By the term “substantially non-emetic” is meant that, generally, when a compound or composition of the invention is administered to a population of animals, more than 70% (or at least ⅔) of the animals are free of emesis. Preferably, more than 80%, most preferably more than 90%, of said population is free of emesis.
(§2) In the animals treated with the compounds above, there was substantially no emesis after 2, 8 and 24 hours. Generally long-term control of fleas and ticks was provided in dogs. In the cats treated, there was commercially acceptable control of fleas for at least one day post treatment.
(§3) The compounds listed below were formulated and tested as described in Biological Example 1, again at the dosage level of active ingredient of 10 mg/kg in dogs and 20 mg/kg in cats. Results at 1 DPT (day post-treatment) are tabulated below, where the compound numbers are the same as those listed in Tables 1, 2, 4, 5, 6, 7, 8, 9, 10, 11, 12 and 13 hereinabove.

[2] = tested on: ticks (Rhipicephalus sanguineus); assay: Control of ticks on treated dogs (Biological Examples 1-3); details: dogs, 10 mg/kg, 30 mg/mL in 1:1 dimethyl sulfoxide/corn oil, 1 day post-treatment, versus placebo group
Description: (§4) All dogs were infested with cat fleas (Ctenocephalides felis) and with ticks (Rhipicephalus sanguineus) 1 day prior to administration of the compound. Cats were only infested with fleas. The initial flea and tick counts were performed 1 day after the administration of the compounds. At 7, 14, 21 and 28 days after treatment the dogs were re-infested with ticks and 8, 15, 22 and 29 days after treatment the dogs and cats were re-infested with fleas. At 1, 9, 16, 23 and 30 days after treatment the control of fleas and ticks in treated dogs and cats was determined versus a group of infested dogs and cats which received a placebo consisting of a 1:1 volume/volume solution of dimethyl sulfoxide and corn oil. To determine the efficacies of the compounds, the arthropods were combed from the animals and counted.
as §3
(§5) Testing was carried out as described in Biological Example 1. […] The Huang et al compound was deemed to have insufficient activity to be tested in cats.

[3] = Emesis in treated dogs; details: dogs, 10 mg/kg
Description: as §1, §2, §3

[4] = tested on: cat fleas (Ctenocephalides felis); assay: Control of cat fleas on treated dogs (Biological Examples 1-3); details: dogs, 10 mg/kg, 30 mg/mL in 1:1 dimethyl sulfoxide/corn oil, 1 day post-treatment, versus placebo group
Description: as §4, §3, §5

[5] = tested on: cat fleas (Ctenocephalides felis); assay: Control of cat fleas on treated cats (Biological Examples 1-3); details: cats, 20 mg/kg, 30 mg/mL in 1:1 dimethyl sulfoxide/corn oil, 1 day post-treatment, versus placebo group
Description: as §4, §3, §5

Compound	% Emesis [1]	% Control 1 DPT (Fleas/Ticks): Ticks [2]	% Emesis [3]	% Control 1 DPT (Fleas/Ticks): Fleas [4]	% Control 1 DPT (Fleas) [5]
CCOCC(=O)N(c1c(SC(F)(F)F)c(C#N)nn1-c1c(Cl)cc(C(F)(F)F)cc1Cl)C1CC1 [Compound 3-12]	25%	97%	0%	99%	97%
CC(C)OCC(=O)N(C)c1c([S+]([O-])C(F)(F)F)c(C#N)nn1-c1c(Cl)cc(C(F)(F)F)cc1Cl (stereo not drawn) [Compound 4-3]	25%	100/100%	33%	100/100%	100%
CCCN(C(=O)COCC)c1c(SC(F)(F)F)c(C#N)nn1-c1c(Cl)cc(C(F)(F)F)cc1Cl [Compound 13-1]	0%	97%	0%	99%	61%
COCC(=O)N(CC1CC1)c1c(S(=O)(=O)C(F)(F)F)c(C#N)nn1-c1c(Cl)cc(C(F)(F)F)cc1Cl [Compound 27-5]	0%	100/100%	0%	100/100%	100%
CC(=O)OCC(=O)N(C)c1c(SC(F)(F)F)c(C#N)nn1-c1c(Cl)cc(C(F)(F)F)cc1Cl [Compound 36-1]	25%	92%	0%	71%	100%
COC(=O)N(C)c1c(SC(F)(F)F)c(C#N)nn1-c1c(Cl)cc(C(F)(F)F)cc1Cl [Compound 67-1]	0%	100/100%	33%	100/100%	53%
CCOC(=O)N(C)c1c(SC(F)(F)F)c(C#N)nn1-c1c(Cl)cc(C(F)(F)F)cc1Cl [Compound 68-1, 3-cyano-1-(2,6-dichloro-4-trifluoromethylphenyl)-5-(N-ethoxycarbonyl-N-methyl)amino-4-trifluoromethylthiopyrazole]	0%	77%	0%	100%	100%
CC(C)OC(=O)N(C)c1c(SC(F)(F)F)c(C#N)nn1-c1c(Cl)cc(C(F)(F)F)cc1Cl [Compound 69-1]	0%	94%	0%	98%	100%
CCCOC(=O)N(C)c1c(SC(F)(F)F)c(C#N)nn1-c1c(Cl)cc(C(F)(F)F)cc1Cl [Compound 70-1]	0%	100%	0%	99%	85%
CCN(C(=O)OC)c1c(SC(F)(F)F)c(C#N)nn1-c1c(Cl)cc(C(F)(F)F)cc1Cl [Compound 71-1]	50%	100/100%	0%	100/100%	100%
CCOC(=O)N(CC)c1c(SC(F)(F)F)c(C#N)nn1-c1c(Cl)cc(C(F)(F)F)cc1Cl [Compound 72-1]	0%	97%	0%	100%	99%
CCN(C(=O)OC(C)C)c1c(SC(F)(F)F)c(C#N)nn1-c1c(Cl)cc(C(F)(F)F)cc1Cl [Compound 73-1]	0%	100/100%	0%	100/100%	93%
CCCOC(=O)N(CC)c1c(SC(F)(F)F)c(C#N)nn1-c1c(Cl)cc(C(F)(F)F)cc1Cl [Compound 74-1]	0%	87%	0%	99%	100%
CCCN(C(=O)OC)c1c(SC(F)(F)F)c(C#N)nn1-c1c(Cl)cc(C(F)(F)F)cc1Cl [Compound 75-1]	25%	57%	0%	89%	71%
CCCN(C(=O)OCC)c1c(SC(F)(F)F)c(C#N)nn1-c1c(Cl)cc(C(F)(F)F)cc1Cl [Compound 76-1]	0%	86%	0%	100%	100%
CCCN(C(=O)OC(C)C)c1c(SC(F)(F)F)c(C#N)nn1-c1c(Cl)cc(C(F)(F)F)cc1Cl [Compound 77-1]	0%	10%	0%	98%	99%
COC(=O)N(c1c(SC(F)(F)F)c(C#N)nn1-c1c(Cl)cc(C(F)(F)F)cc1Cl)C(C)C [Compound 79-1]	0%	86%	0%	96%	87%
CCOC(=O)N(c1c(SC(F)(F)F)c(C#N)nn1-c1c(Cl)cc(C(F)(F)F)cc1Cl)C(C)C [Compound 80-1]	0%	94%	0%	100%	99%
CC(C)OC(=O)N(c1c(SC(F)(F)F)c(C#N)nn1-c1c(Cl)cc(C(F)(F)F)cc1Cl)C(C)C [Compound 81-1]	0%	66%	0%	76%	100%
COCCOCC(=O)N(C)c1c(S(=O)(=O)C(F)(F)F)c(C#N)nn1-c1c(Cl)cc(C(F)(F)F)cc1Cl [Compound 120-1]	0%	78%	0%	97%	100%
CCC(=O)N(C)c1c(SC(F)(F)F)c(C#N)nn1-c1c(Cl)cc(C(F)(F)F)cc1Cl [Compound 123-1]	25%	0%	0%	74%	100%
CN(C(=O)c1ccc(C(F)(F)F)cc1)c1c(SC(F)(F)F)c(C#N)nn1-c1c(Cl)cc(C(F)(F)F)cc1Cl [Compound 127-1]	0%	97%	0%	100%	84%
CN(C(=O)c1ccco1)c1c(SC(F)(F)F)c(C#N)nn1-c1c(Cl)cc(C(F)(F)F)cc1Cl [Compound 130-1]	25%	100/100%	0%	100/100%	93%
CN(C)C=Nc1c(SC(F)(F)F)c(C#N)nn1-c1c(Cl)cc(C(F)(F)F)cc1Cl [Compound 219, 3-cyano-1-(2,6-dichloro-4-trifluoromethylphenyl)-5-N′-dimethylaminomethylideneamino-4-trifluoromethylthiopyrazole]	25%	80%	33%	97%	100%
N#Cc1nn(-c2c(Cl)cc(C(F)(F)F)cc2Cl)c(N=CNCC(F)(F)F)c1S(=O)(=O)C(F)(F)F [Compound 230]	0%	80%	0%	100%	98%
CC(=O)O.N#Cc1nn(-c2c(Cl)cc(C(F)(F)F)cc2Cl)c(N=CNCC(F)(F)F)c1SC(F)(F)F [Compound 232]	0%	35%	0%	99%	100%
N#Cc1nn(-c2c(Cl)cc(C(F)(F)F)cc2Cl)c(N=CNCC(F)(F)F)c1SC(F)(F)F.O=C(O)CC(O)(CC(=O)O)C(=O)O [Compound 233]	0%	77%	0%	100%	95%
